From patent publication US7897580B2, “β glycolipids as immuno-modulators” (priority 2005, dated 2011)

Tests used:
human Hep3B HCC = experiment: Hep3B hepatocellular carcinoma transplanted into athymic Balb/c mice (Example 2); format: in vivo; conditions: for hepatic/splenic NKT lymphocyte ratio / reduction of tumor volume (% change from maximal volume) / tumors developed (% of animals) / maximal tumor volume: daily i.p. 1.5 μg for 25 days; for hepatic/splenic NKT lymphocyte ratio: PBS control 0.38, p<0.05, FIG. 7; for reduction of tumor volume (% change from maximal volume): controls 10% increase, p<0.05, FIG. 6; for tumors developed (% of animals): controls 100%, FIG. 4; for maximal tumor volume: controls 101.14 mm^3, p<0.05, FIG. 5; for STAT4 expression in splenocytes / STAT6 expression in splenocytes: vs. controls, FIG. 9
Text: Splenocytes were isolated and red blood cells removed as previously described [Vicari, A. P., et al., Immunology Today 17(2):71 (1996)]. Intrahepatic lymphocytes were isolated from all groups of mice at the end of the study, as previously described, with some modifications [Vicari et al., (1996) ibid.; Bleicher, P. A., et al., Science 250:679-682 (1990)]. […] The connective tissue and the gall bladder were removed, and livers were place in a 10-ml dish in cold sterile PBS. Livers and spleens were crushed through a stainless mesh (size 60, Sigma Chemical Co., St. Louis Mo.). Cell suspension was placed in a 50 ml tube for 3 minutes and washed twice in cold PBS (1,250×rpm for 10 minutes), and debris was removed. Cells were re-suspended in PBS, cell suspension was placed through a nylon mesh presoaked in PBS, and unbound cells were collected. Cells were washed twice in 45 ml PBS (1,250×rpm in room temperature). For liver and spleen lymphocyte isolation 20 ml of histopague 1077 (Sigma Diagnostics, St. Louis, Mo.) were slowly placed underneath the cells suspended in 7 ml of PBS, in a 50-ml tube. The tube was centrifuged at 1,640 rpm for 15 minutes at room temperature. Cells at the interface were collected, diluted in a 50-ml tube, and washed twice with ice-cold PBS (1,250 rpm for 10 minutes). Approximately 1×10^6 cells/mouse liver were recovered. The viability by trypan blue staining was more than 95%. Both splenocytes and liver-associated lymphocytes were isolated from all animals in all experimental groups.
Immediately following lymphocyte isolation, triplicates of 2-5×10^4 cells/500 μl PBS were put into Falcon 2052 tubes incubated with 4 ml of 1% BSA for 10 minutes, and centrifuged at 1400 rpm for 5 minutes. Analysis of lymphocyte subpopulations was performed using anti-NK1.1, anti-CD3, anti-CD4 and anti CD-8 antibodies. Cells were washed twice in 1% BSA, and kept in 4° C. until reading. For the control group, only 5 μl of 1% BSA was added. Analytical cell sorting was performed on 1×10^4 cells from each group with a fluorescence-activated cell sorter (FACSTAR plus, Becton Dickinson). Only live cells were counted, and background fluorescence from non-antibody-treated lymphocytes was deducted from the levels obtained. Gates were set on forward- and side-scatters to exclude dead cells and red blood cells. The data were analyzed with Consort 30 two-color contour plot program (Becton Dickinson, Oxnard, Calif.), or the CELLQuest program.
Blood was drawn from mice in all groups and centrifuged at 14,000 rpm. Serum INFγ, IL2, IL4, IL10 and IL-12 levels were measured by “sandwich” ELISA using Genzyme Diagnostics kits (Genzyme Diagnostics, Mass.).
To determine the clinical and immunological consequences of administration of different β-glycolipids such as β-glucosylceramide (GluC), β-lactosyl-ceramide (LacC), and β-galactosyl-ceramide (GalC) and of ceramide on hepatocellular carcinoma (HCC), mice transplanted with human Hep3B HCC cells, were studied. Five groups of athymic Balb/c mice, consisting of 8 mice each, were sublethally irradiated and transplanted with human Hep3B HCC, followed by daily intraperitoneal injections of GluC, LacC, GalC, ceramide (1.5 μg in 100 μl PBS) or PBS (100μ) for 25 days. Animals were followed for tumor size and weight and for intrahepatic and intrasplenic lymphocyte subpopulations, serum cytokine levels and expression of STAT1, STAT4 and STAT6 in splenocytes.

TNBS colitis = experiment: TNBS-induced experimental colitis, single β-glycolipids (Example 1); format: in vivo, C57Bl mice; conditions: oral 15 μg daily, compared with controls
Procedure: (§1) 2,4,6-trinitrobenzene sulfonic acid (TNBS)—colitis was induced by intracolonic instillation of TNBS, 1 mg/mouse, dissolved in […] of 50% ethanol as described. [Collins, C., etal., Eur. J. Immunol. 26:3114-3118 (1996)].
(§2) Diarrhea was followed daily throughout the study.
(§3) Colitis assessment was performed 14 days following colitis induction using standard parameters [Madsen, K. L., et al., Gastroenterology 113:151-159 (1997); Trop, S., et al., Hepatology 27:746-755 (1999)].
Four macroscopic parameters were determined, namely: degree of colonic ulcerations; intestinal and peritoneal adhesions; wall thickness; and degree of mucosal edema. Each parameter was graded on a scale from 0 (completely normal) to 4 (most severe) by two experienced blinded examiners. […]
Immediately following lymphocyte isolation, triplicates of 2-5×10^4 cells/500 μl PBS were put into Falcon 2052 tubes incubated with 4 ml of 1% BSA for 10 minutes, and centrifuged at 1400 rpm for 5 minutes. […] Cells were washed twice in 1% BSA, and kept in 4° C. until reading. […] Analytical cell sorting was performed on 1×10^4 cells from each group with a fluorescence-activated cell sorter (FACSTAR plus, Becton Dickinson). Only live cells were counted, and background fluorescence from non-antibody-treated lymphocytes was deducted from the levels obtained. […]

TNBS induced colitis = experiment: TNBS-induced colitis, mixture of β-GluC and β-LacC vs β-LacC alone (Example 3); format: in vivo, mice; conditions: with TNBS; for Weight: share of mice, TNBS alone: Weight loss, listed as β-LC
Procedure: as §1, §2, §3
Four macroscopic parameters were determined, namely: degree of colonic ulcerations; intestinal and peritoneal adhesions; wall thickness; and degree of mucosal edema. Each parameter was graded on a scale from 0 (completely normal) to 4 (most severe) by two experienced blinded examiners.
For histological evaluation of inflammation, distal colonic tissue (last 10 cm) was removed and fixed in 10% formaldehyde. Five paraffin sections from each mouse were then stained with hematoxylin-eosin by using standard techniques. The degree of inflammation on microscopic cross sections of the colon was graded semiquantitatively from 0 to 4 [Madsen et al., (1997) ibid.; Trop et al., Hepatology 27:746-755 (1999)]. Grade 0: normal with no signs of inflammation; Grade 1: very low level of leukocyte infiltration; Grade 2: low level of leukocyte infiltration; and Grade 3: high level of infiltration with high vascular density, and bowel wall thickening; Grade 4: transmural infiltrates with loss of goblet cells, high vascular density, wall thickening, and disruption of normal bowel architecture. The grading was performed by two experienced blinded examiners.
To determine the possible immuno-modulation effect of a mixture of different β-glycolipids, the effect of a mixture of β-Glucocerebroside and β-Lactosyl-ceramide was tested using a murine model of colitis.
As summarized in Table 3, five groups of mice were studied, each consisting of 10 mice. Colitis was induced by intracolonic installation of trinitrobenzenesulfonic acid (TNBS) on day 1 and 5 in groups A, B and D. Group A mice were fed regular chow diet. […]

[1] = Mixture of β-GluC and β-LacC or β-LacC alone in mice not treated with TNBS, control groups (Example 3); format: in vivo; conditions: without TNBS
Procedure: As summarized in Table 3, five groups of mice were studied, each consisting of 10 mice. Colitis was induced by intracolonic installation of trinitrobenzenesulfonic acid (TNBS) on day 1 and 5 in groups A, B and D. Group A mice were fed regular chow diet. Group B mice received oral (PO) 15 μg daily of a mixture of β-GluC and β-LacC, group D received only β-LacC. Groups C and E mice were not treated with TNBS, but received oral (PO) 15 μg daily of a mixture of β-GluC and β-LacC or only β-LacC, respectively, and served as control groups.
Mice were followed for macroscopic and microscopic colitis scores, as well as for survival and functional status and weight.

Row | Substance | hepatic/splenic NKT lymphocyte ratio (human Hep3B HCC) | reduction of tumor volume (% change from maximal volume) (human Hep3B HCC) [%] | tumors developed (% of animals) (human Hep3B HCC) [%] | maximal tumor volume (human Hep3B HCC) [mm^3] | STAT4 expression in splenocytes (human Hep3B HCC) | STAT6 expression in splenocytes (human Hep3B HCC) | alleviation of colitis (microscopic colitis scores) (TNBS colitis; FIG. 1) | alleviation of colitis (microscopic colitis scores) (TNBS colitis; FIG. 1, listed as Lactosyl-ceramide) | Weight (TNBS induced colitis; share of mice with no weight change) | Weight (TNBS induced colitis; share of mice with weight increase) | Activity (TNBS induced colitis; TNBS alone: Lethargic) | Activity [1] | Weight ([1]; share of mice)
1 | ceramide | 0.85 | 81 | 50 | 64.4 | increased | increased | – | – | – | – | – | – | –
2 | β-galactosyl-ceramide [GalC] | – | 49 | 71 | 86.1 | increased | increased | – | – | – | – | – | – | –
3 | β-glucosylceramide | 6.13 | 43 | 87 | 71.4 | – | – | – | – | – | – | – | – | –
4 | β-lactosyl-ceramide [LacC] | 1.94 | 78 | 43 | 77.9 | increased | increased | most marked | most potent | In 90% no change | In 10% increase | Normal | Normal | In 100% increase
